From patent US20240228482A1, “COMPOUNDS, COMPOSITIONS AND METHODS OF TREATING CANCER” (HOTSPOT THERAPEUTICS, INC., priority 2021, published 2024) come the findings set out here.

Structures are written as SMILES. Bounds are passed on as bounds.

The target in this test is T1, CBL-B (Homo sapiens, UniProt Q13191).
T1 construct: GST
T1 sequence (Q13191 whole entry): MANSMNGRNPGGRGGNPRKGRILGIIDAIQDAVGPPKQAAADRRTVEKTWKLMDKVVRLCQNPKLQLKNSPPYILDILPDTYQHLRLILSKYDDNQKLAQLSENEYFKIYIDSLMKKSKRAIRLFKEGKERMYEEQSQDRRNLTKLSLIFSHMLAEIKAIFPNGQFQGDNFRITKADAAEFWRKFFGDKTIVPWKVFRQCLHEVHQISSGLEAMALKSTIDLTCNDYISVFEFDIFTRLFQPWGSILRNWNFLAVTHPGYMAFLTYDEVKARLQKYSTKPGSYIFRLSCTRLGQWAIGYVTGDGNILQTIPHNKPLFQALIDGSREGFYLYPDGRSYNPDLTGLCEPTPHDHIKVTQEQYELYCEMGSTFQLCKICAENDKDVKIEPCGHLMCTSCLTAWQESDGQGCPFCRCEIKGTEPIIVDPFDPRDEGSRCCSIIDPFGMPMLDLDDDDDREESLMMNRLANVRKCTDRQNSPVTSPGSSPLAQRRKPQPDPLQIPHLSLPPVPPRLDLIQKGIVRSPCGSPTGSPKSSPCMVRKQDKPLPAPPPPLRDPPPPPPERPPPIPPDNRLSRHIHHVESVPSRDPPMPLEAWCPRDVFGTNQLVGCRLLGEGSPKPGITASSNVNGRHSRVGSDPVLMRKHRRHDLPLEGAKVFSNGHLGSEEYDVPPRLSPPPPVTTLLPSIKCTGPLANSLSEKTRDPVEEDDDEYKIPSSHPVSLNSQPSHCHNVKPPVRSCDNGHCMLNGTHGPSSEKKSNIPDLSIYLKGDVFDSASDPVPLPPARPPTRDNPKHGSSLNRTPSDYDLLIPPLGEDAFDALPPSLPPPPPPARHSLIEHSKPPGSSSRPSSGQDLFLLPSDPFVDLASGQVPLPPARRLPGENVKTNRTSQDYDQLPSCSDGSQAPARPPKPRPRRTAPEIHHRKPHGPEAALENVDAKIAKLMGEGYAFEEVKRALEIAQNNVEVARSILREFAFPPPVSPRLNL
In words: CBL-B TR-FRET IC50 screening (E1/E2 ubiquitination, Biotin-Ubiquitin, Anti GST-Tb donor / Streptavidin-d2 acceptor). The format is biochemical. The following applies: CBL-B 10 nM final; 11-point titration from 100 uM; binned A-F; read-out: CBL-B TR-FRET activity IC50. In general terms: Time-resolved FRET reads energy transfer from a long-lived donor to a nearby acceptor.
For orientation: IC50 means the concentration that gives 50% inhibition. For `CO[C@@H]1CCN(Cc2cc(C(F)(F)F)c3cn(-c4cccc([C@H](c5nncn5C)C5CCC5)c4)c(=O)n3c2)C1` [Compound 249], the IC50 is below 100 nM.
`CO[C@H]1CCCN(Cc2cc(C(F)(F)F)c3cn(-c4cccc([C@H](c5nncn5C)C5CCC5)c4)c(=O)n3c2)C1` [Compound 250]: the IC50 is below 100 nM.
For `CO[C@@H]1CCCN(Cc2cc(C(F)(F)F)c3cn(-c4cccc([C@H](c5nncn5C)C5CCC5)c4)c(=O)n3c2)C1` [Compound 251], the 50% inhibitory concentration (IC50) is below 100 nM.
The same measure for `COC1(CNCc2cc(C(F)(F)F)c3cn(-c4cccc(C5(Cc6nncn6C)COC5)c4)c(=O)n3c2)CC1` [Compound 252]: below 100 nM.
Take `Cn1cnnc1CC1(c2cccc(-n3cc4c(C(F)(F)F)cc(CNCC5CCCO5)cn4c3=O)c2)COC1` (stereo not shown) [Compound 253]: the IC50 was below 100 nM.
In the case of `Cn1cnnc1CC1(c2cc(C#N)cc(-n3cc4c(C(F)(F)F)cc(Br)cn4c3=O)c2)COC1` [Compound 254], the IC50 is 1000 to 3000 nM.
The same measure for `C[C@H]1CCCN(Cc2cc(C(F)(F)F)c3cn(-c4cccc([C@]5(c6nncn6C)C[C@@H](O)C5)c4)c(=O)n3c2)C1` [Compound 255]: below 100 nM; for `Cn1cnnc1[C@@H](c1cccc(-n2cc3c(C(F)(F)F)cc(CN4CCC(=O)N4)cn3c2=O)c1)C1CCC1` [Compound 258]: below 100 nM; for `CO[C@H]1CCN(Cc2cc(C(F)(F)F)c3cn(-c4cccc([C@H](c5nncn5C)C5CCC5)c4)c(=O)n3c2)C1` [Compound 259]: below 100 nM.
The same measure for `C[C@H]1CCCN(Cc2cc(C(F)(F)F)c3cn(-c4cccc(N(c5nncn5C)C5CCC5)c4)c(=O)n3c2)C1` [Compound 260]: below 100 nM; for `Cn1cnnc1[C@@H](c1cccc(-n2cc3c(C(F)(F)F)cc(CN4CCc5ncsc5C4)cn3c2=O)c1)C1CCC1` [Compound 265]: below 100 nM.
The same measure for `CO[C@H](C)CNCc1cc(C(F)(F)F)c2cn(-c3cccc(C4(Cc5nncn5C)COC4)c3)c(=O)n2c1` [Compound 266]: below 100 nM.
As to `Cc1c[nH]nc1[C@H](c1cccc(-n2cc3c(C(F)(F)F)cc(CN4CCO[C@H](C)C4)cn3c2=O)c1)C1COC1` [Compound 267], the IC50 is above 10000 nM.
With `Cc1c[nH]nc1[C@@H](c1cccc(-n2cc3c(C(F)(F)F)cc(CN4CCO[C@H](C)C4)cn3c2=O)c1)C1COC1` [Compound 268], the IC50 is above 10000 nM.
The same measure for `C[C@H]1CCCN(Cc2cc(C(F)(F)F)c3cn(-c4cccc([C@@H](c5nnc[nH]5)C5CCC5)c4)c(=O)n3c2)C1` [Compound 269]: below 100 nM.
As to `C[C@H]1CCCN(Cc2cc(C(F)(F)F)c3cn(-c4cccc([C@H](c5ncn[nH]5)C5CCC5)c4)c(=O)n3c2)C1` [Compound 270], the IC50 is above 10000 nM.
The same measure for `CN(Cc1cc(C(F)(F)F)c2cn(-c3cccc([C@H](c4nncn4C)C4CCC4)c3)c(=O)n2c1)Cc1cncs1` [Compound 275]: below 100 nM; for `Cn1cnnc1[C@@H](c1cccc(-n2cc3c(C(F)(F)F)cc(CN4CC5(CSC5)C4)cn3c2=O)c1)C1CCC1` [Compound 276]: below 100 nM; for `Cc1cc(-n2cc3c(C(F)(F)F)cc(CN4CCO[C@H](C)C4)cn3c2=O)cc(C2(Cc3nncn3C)COC2)c1` [Compound 277]: above 10000 nM.
The same measure for `[2H]C([2H])([2H])n1cnnc1CC1(c2cccc(-n3cc4c(C(F)(F)F)cc([C@H](C)N5CCC[C@H](C)C5)cn4c3=O)c2)COC1` [Compound 278_P1]: below 100 nM; for `[2H]C([2H])([2H])n1cnnc1CC1(c2cccc(-n3cc4c(C(F)(F)F)cc([C@@H](C)N5CCC[C@H](C)C5)cn4c3=O)c2)COC1` [Compound 278_P2]: below 100 nM.
The same measure for `C[C@@H]1CN(Cc2cc(C(F)(F)F)c3cn(-c4cccc(C5(c6nncn6C)CC(F)(F)C5)c4)c(=O)n3c2)CCO1` [Compound 279]: 301 to 1000 nM.
Regarding `Cc1c[nH]nc1[C@H](c1cccc(-n2cc3c(C(F)(F)F)cc(CN4CCC[C@H](C)C4)cn3c2=O)c1)C1COC1` [Compound 280], the IC50 was above 10000 nM.
The same measure for `Cc1c[nH]nc1[C@@H](c1cccc(-n2cc3c(C(F)(F)F)cc(CN4CCC[C@H](C)C4)cn3c2=O)c1)C1COC1` [Compound 281]: above 10000 nM; for `Cn1cnnc1[C@@H](c1cccc(-n2cc3c(C(F)(F)F)cc(CN4CC[C@H](C(F)(F)F)C4)cn3c2=O)c1)C1CCC1` [Compound 284]: 301 to 1000 nM; for `Cn1cnnc1[C@@H](c1cccc(-n2cc3c(C(F)(F)F)cc(CN4CC5(CCC5)C4)cn3c2=O)c1)C1CCC1` [Compound 286]: below 100 nM.
The same measure for `[2H]C([2H])([2H])n1cnnc1CC1(c2cccc(-n3cc4c(C(F)(F)F)cc([C@H](C)N5CCO[C@H](C)C5)cn4c3=O)c2)COC1` [Compound 287_P1]: below 100 nM; for `[2H]C([2H])([2H])n1cnnc1CC1(c2cccc(-n3cc4c(C(F)(F)F)cc([C@@H](C)N5CCO[C@H](C)C5)cn4c3=O)c2)COC1` [Compound 287_P2]: below 100 nM; for `C[C@@H]1CN(Cc2cc(C(F)(F)F)c3cn(-c4cccc([C@H](c5nncn5C)C5CCC5)c4)c(=O)n3c2)CCS1` [Compound 290]: below 100 nM.
The same measure for `C[C@@H]1CN(Cc2cc(C(F)(F)F)c3cn(-c4cccc([C@H](c5nncs5)C5CCC5)c4)c(=O)n3c2)CCO1` [Compound 291]: above 10000 nM.
On to `C[C@H]1CCCN(Cc2cc(C(F)(F)F)c3cn(-c4cccc(Cc5nncn5C)c4)c(=O)n3c2)C1` [Compound 294], for which the IC50 lay within 1000 to 3000 nM.
The same measure for `Cn1cnnc1[C@@H](c1cccc(-n2cc3c(C(F)(F)F)cc(CN4CC5(CCCC5)C4)cn3c2=O)c1)C1CCC1` [Compound 295]: below 100 nM; for `COC1(C)CN(Cc2cc(C(F)(F)F)c3cn(-c4cccc([C@H](c5nncn5C)C5CCC5)c4)c(=O)n3c2)C1` [Compound 296]: below 100 nM.
The same measure for `Cn1cnnc1[C@@H](c1cccc(-n2cc3c(C(F)(F)F)cc(CN4CC(F)C4)cn3c2=O)c1)C1CCC1` [Compound 297]: below 100 nM.
As to `Cn1cnnc1[C@@H](c1cccc(-n2cc3c(C(F)(F)F)cc(CN4CC(C)(F)C4)cn3c2=O)c1)C1CCC1` [Compound 298], the 50% inhibitory concentration (IC50) is below 100 nM.
Consider `Cn1cnnc1[C@@H](c1cccc(-n2cc3c(C(F)(F)F)cc(CN4CC(F)(F)C4)cn3c2=O)c1)C1CCC1` [Compound 299], for which the half-inhibitory concentration (IC50) is below 100 nM.
Take `C[C@@H]1CN(Cc2cc(C(F)(F)F)c3cn(-c4cccc([C@@H](c5nncs5)C5CCC5)c4)c(=O)n3c2)CCO1` [Compound 300]: the half-inhibitory concentration (IC50) lay in the range of 1000 to 3000 nM.
Consider `C[C@@H]1CN(Cc2cc(C(F)(F)F)c3cn(-c4cccc([C@H](c5nncn5C)C5COC5)c4)c(=O)n3c2)CCO1` [Compound 304], for which the IC50 was below 100 nM.
The same measure for `Cn1cnnc1C1(c2cccc(-n3cc4c(C(F)(F)F)cc(CN5CCc6ncsc6C5)cn4c3=O)c2)CC2(CC2)C1` [Compound 307]: below 100 nM.
The same measure for `C[C@H]1CCCN(Cc2cc(C(F)(F)F)c3cn(-c4cccc(C5(c6nncn6C)CC6(CCC6)C5)c4)c(=O)n3c2)C1` [Compound 310]: below 100 nM.
The same measure for `C[C@H]1CCCN(Cc2cc(C(F)(F)F)c3cn(-c4cccc(C5(c6nncs6)CC6(CC6)C5)c4)c(=O)n3c2)C1` [Compound 311]: above 10000 nM; for `COC1CN(Cc2cc(C(F)(F)F)c3cn(-c4cccc([C@H](c5nncn5C)C5CCC5)c4)c(=O)n3c2)C1` [Compound 312]: below 100 nM.
In the case of `Cn1cnnc1[C@@H](c1cccc(-n2cc3c(C(F)(F)F)cc(CN4CC(C(F)(F)F)C4)cn3c2=O)c1)C1CCC1` [Compound 313], the IC50 is below 100 nM.
In the case of `C[C@@H]1CN(Cc2cc(C(F)(F)F)c3cn(-c4cccc(N(c5nncn5C)C5CCC5)c4)c(=O)n3c2)CCO1` [Compound 314], the IC50 was above 10000 nM.
As for `Cn1cnnc1[C@@H](c1cccc(-n2cc3c(C(F)(F)F)cc(CN4CCc5scnc5C4)cn3c2=O)c1)C1CCC1` [Compound 315], the IC50 is below 100 nM.
For `Cn1cnnc1[C@@H](c1cccc(-n2cc3c(C(F)(F)F)cc(CN4CCn5cnnc5C4)cn3c2=O)c1)C1CCC1` [Compound 316], the IC50 was below 100 nM.
The same measure for `Cn1cnnc1[C@@H](c1cccc(-n2cc3c(C(F)(F)F)cc(CN4CCn5ncnc5C4)cn3c2=O)c1)C1CCC1` [Compound 317]: below 100 nM; for `CO[C@H]1C[C@@](c2cccc(-n3cc4c(C(F)(F)F)cc(CN5CCC[C@H](C)C5)cn4c3=O)c2)(c2nncn2C)C1` [Compound 318]: below 100 nM.
Take `Cn1cnnc1[C@@H](c1cccc(-n2cc3c(C(F)(F)F)cc(CN4CCO[C@H](C(F)(F)F)C4)cn3c2=O)c1)C1CCC1` [Compound 321]: the IC50 was below 100 nM.
Regarding `Cn1cnnc1[C@@H](c1cccc(-n2cc3c(C(F)(F)F)cc(CNCC4COC4)cn3c2=O)c1)C1CCC1` [Compound 322], the IC50 is below 100 nM.
The same measure for `CN(Cc1cc(C(F)(F)F)c2cn(-c3cccc([C@H](c4nncn4C)C4CCC4)c3)c(=O)n2c1)C1COC1` [Compound 323]: below 100 nM; for `Cn1cnnc1[C@@H](c1cccc(-n2cc3c(C(F)(F)F)cc(CNC4COC4)cn3c2=O)c1)C1CCC1` [Compound 324]: below 100 nM; for `CN(C)C(=O)C1CN(Cc2cc(C(F)(F)F)c3cn(-c4cccc([C@H](c5nncn5C)C5CCC5)c4)c(=O)n3c2)C1` [Compound 325]: below 100 nM.
On to `Cc1[nH]nnc1[C@H](c1cccc(-n2cc3c(C(F)(F)F)cc(CN4CCC[C@H](C)C4)cn3c2=O)c1)C1CCC1` [Compound 326], for which the IC50 is below 100 nM.
The same measure for `Cc1[nH]nnc1[C@@H](c1cccc(-n2cc3c(C(F)(F)F)cc(CN4CCC[C@H](C)C4)cn3c2=O)c1)C1CCC1` [Compound 327]: below 100 nM; for `O=c1n(-c2cccc([C@H](c3nncs3)C3CCC3)c2)cc2c(C(F)(F)F)cc(CN3CCC4(CC4)C3)cn12` [Compound 328]: 1000 to 3000 nM; for `COC1CCN(Cc2cc(C(F)(F)F)c3cn(-c4cccc([C@H](c5nncs5)C5CCC5)c4)c(=O)n3c2)CC1` [Compound 330]: 301 to 1000 nM.
Turning to `Cn1cnnc1[C@@H](c1cccc(-n2cc3c(C(F)(F)F)cc(-c4nncs4)cn3c2=O)c1)C1CCC1` [Compound 331], the concentration for half-maximal inhibition (IC50) fell in the range of 301 to 1000 nM.
